Source: paper PMC11475570, “Impact of Optimized Ku–DNA Binding Inhibitors on the Cellular and In Vivo DNA Damage Response” (Cancers, 2024)

Columns and labels:
Ku70–Ku80 [1] = target: T1, Ku70–Ku80 (Homo sapiens, UniProt P12956+P13010); experiment: Microscale thermophoresis (MST); format: binding; conditions: labeled Ku 5 nM, 5% DMSO, single-site fit
T1 construct: made in house; host or cells: baculovirus-infected Sf9 cells
Protocol: Ku heterodimer was labeled using the Monolith NT™ Protein Labeling Kit RED-NHS (2nd generation amine reactive, NanoTemper Technologies GmbH, MO-L011, München, Germany), following the manufacturer’s protocol. Ku-DBi 3392 powder was resuspended in 100% DMSO, and the concentration was adjusted to 50 mM after UV absorbance measurement (absorbance at 417 nm with an extension coefficient equal to 15.2 mM^−1 cm^−1). The ligand stock solution was sonicated in an ultrasonic bath before preparations of the dilution series. The MST and Differential Scanning Fluorometry (DSF) assays contain 5% DMSO to fit the DMSO concentration at the highest ligand concentration (200 µM). The labeled protein (5 nM) was incubated with ligand 3392 ranging from 98 nM to 200 µM in a 12-point 1:1 dilution series. Protein–ligand solutions were incubated for 30 min at room temperature before MST measurements, which were performed in triplicate. Proteins were transferred to capillaries (Monolith NT. Automated Premium Capillary Chips), and binding was analyzed with a Monolith NT. Automated pico-RED device using MO. Control Software with nano-red excitation, LED light adjusted to 20% excitation power, and infrared laser (MST power) set to medium. The dissociation constants (KD) were determined with MO. […]

Ku70–Ku80 [2] = target: T1, Ku70–Ku80; experiment: nanoDSF thermostability and aggregation; format: binding; conditions: Ku 5 µM, 5 µM 3392, up to 25 µM no additional change
Protocol: The thermostability and aggregation propensity of Ku was assessed using a Prometheus Panta nanoDSF instrument (NanoTemper Technologies GmbH, München, Germany). High-sensitivity capillaries were filled with Ku (10 μL each, experiments in triplicate) at a concentration of 5 µM into the instrument. We titrated against ligand 3392 covering a concentration ranging from 0 to 30 µM with measurements collected at a 1 °C-per-minute scan rate from 25 to 95 °C. Thermal unfolding was assessed by the increase in intrinsic tryptophan fluorescence detected at 350 and 330 nm following excitation at 280 nm. Inflection points in the thermal denaturation curves were identified using the first derivatives of the ratio r = fluorescence (350 nm)/fluorescence (330 nm). We measured dynamic light scattering (DLS) and turbidity throughout the heating ramp using back reflection to characterize protein aggregation. We determined aggregation temperatures using turbidity variations and increases in particle sizes.

[3] = tested on: A549 NSCLC adenocarcinoma xenograft; experiment: A549 NSCLC xenograft (CDX), intratumoral Ku-DBi with or without IR; format: in vivo, mice; conditions: for Ki-67 expression in tumors: IHC and Western blot
Protocol: The in vivo studies were conducted as approved by the Institutional Animal Care and Use Committee at Indiana University School of Medicine. A549 cells (~2.5 × 10^6) in 50% Matrigel were injected into the hind flanks of 8–10-week-old NOD.Cg-Rag1tm1Mom Il2rgtm1Wjl/SzJ (NRG) mice (IVT, In vivo Therapeutics Core, Indiana University Melvin and Bren Simon Comprehensive Cancer Center, Indianapolis, IN, USA) as previously described. Tumor volumes were monitored by electronic caliper measurement. Mice were randomized into groups of 3 or 4 using a random group generator; 6 different scenarios were generated, and the scenario with the most similar tumor volume averages across groups was selected. Treatments were initiated when tumors were ~600 mm^3. Tumors were administered Ku-DBi (30 µL of 10 mM) or vehicle (30 µL of DMSO) via intratumoral injection 4 h before 5 Gy irradiation of the tumor with a single dose of X-rays (250 kVp; dose rate = 1.4 Gy/min; 2 cm × 2 cm field) under isoflurane anesthesia. […] Mice were sacrificed 2 h post-irradiation (or 2 h post-sham irradiation); tumors were excised and processed for immunohistochemistry (IHC) assays. Cell-free protein extracts were prepared to assess DNA-PKcs autophosphorylation and γ-H2AX levels.
Protein lysates, ranging from 20 to 30 μg, were separated by SDS-PAGE (4–20% Mini Protean TGX Gels, BioRad, Hercules, CA, USA) and transferred onto PVDF membranes (Bio-Rad) through wet transfer. Membranes blocked in 0.5% Tween and 3% BSA in 1× TBS for 1 h were probed with the following primary antibodies: Phospho-DNA PKcs (S2056) (Cat: ab124918, Abcam, Cambridge, UK), total DNA-PKcs (Cat: sc-5282, Santa Cruz Biotechnology, Dallas, TX, USA), and γ-H2AX pS139 (Cat: 613401, BioLegend, San Diego, CA, USA). […] All primary antibodies were prepared with 3% BSA and 0.02% NaN3 in TBS with 0.5% Tween. Goat anti-rabbit or anti-mouse IgG (H + L)–HRP conjugates (Cat: 170-6515 or 170-6516, Bio-Rad) were used as secondary antibodies to detect these proteins. Imaging, densitometric analysis, and quantification of protein expression were performed as previously described.
Excised tumors were fixed in 4% paraformaldehyde (PFA) solution in PBS for 24 h at 4 °C. After fixation, tumors were transferred to 70% ethanol and paraffin embedding. Sectioning was completed by the Indiana University Histology Core at the IU School of Medicine. Representative 3 μm-thick sections for each treatment were stained with H and E (HE; Harris hematoxylin, regressive method) for histologic examination or were processed for Ki-67 IHC immunodetection. Briefly, paraffin-embedded sections were deparaffinized in a xylene series (4 × 3 min) and rehydrated in a series of graded alcohol dilutions (100%, 95%, 70%, and ddH2O, 2 × 2 min each). […]

T1 sequence (P12956 whole entry): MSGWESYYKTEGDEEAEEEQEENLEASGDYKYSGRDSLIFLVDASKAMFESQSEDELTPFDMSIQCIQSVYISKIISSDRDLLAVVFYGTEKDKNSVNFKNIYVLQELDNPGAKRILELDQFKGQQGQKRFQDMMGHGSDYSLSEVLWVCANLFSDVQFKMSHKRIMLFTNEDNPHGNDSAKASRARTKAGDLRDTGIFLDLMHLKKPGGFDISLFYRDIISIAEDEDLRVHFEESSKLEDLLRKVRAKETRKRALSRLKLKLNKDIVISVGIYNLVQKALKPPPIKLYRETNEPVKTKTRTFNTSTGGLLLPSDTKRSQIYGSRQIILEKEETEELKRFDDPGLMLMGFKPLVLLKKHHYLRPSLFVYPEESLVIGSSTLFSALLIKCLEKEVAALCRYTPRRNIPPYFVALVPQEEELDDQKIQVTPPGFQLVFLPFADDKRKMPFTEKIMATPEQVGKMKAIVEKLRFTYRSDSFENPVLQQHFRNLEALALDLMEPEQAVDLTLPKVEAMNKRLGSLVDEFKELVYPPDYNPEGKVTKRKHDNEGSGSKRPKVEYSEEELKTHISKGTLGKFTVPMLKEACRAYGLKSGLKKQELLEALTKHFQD
T1 sequence (P13010 whole entry): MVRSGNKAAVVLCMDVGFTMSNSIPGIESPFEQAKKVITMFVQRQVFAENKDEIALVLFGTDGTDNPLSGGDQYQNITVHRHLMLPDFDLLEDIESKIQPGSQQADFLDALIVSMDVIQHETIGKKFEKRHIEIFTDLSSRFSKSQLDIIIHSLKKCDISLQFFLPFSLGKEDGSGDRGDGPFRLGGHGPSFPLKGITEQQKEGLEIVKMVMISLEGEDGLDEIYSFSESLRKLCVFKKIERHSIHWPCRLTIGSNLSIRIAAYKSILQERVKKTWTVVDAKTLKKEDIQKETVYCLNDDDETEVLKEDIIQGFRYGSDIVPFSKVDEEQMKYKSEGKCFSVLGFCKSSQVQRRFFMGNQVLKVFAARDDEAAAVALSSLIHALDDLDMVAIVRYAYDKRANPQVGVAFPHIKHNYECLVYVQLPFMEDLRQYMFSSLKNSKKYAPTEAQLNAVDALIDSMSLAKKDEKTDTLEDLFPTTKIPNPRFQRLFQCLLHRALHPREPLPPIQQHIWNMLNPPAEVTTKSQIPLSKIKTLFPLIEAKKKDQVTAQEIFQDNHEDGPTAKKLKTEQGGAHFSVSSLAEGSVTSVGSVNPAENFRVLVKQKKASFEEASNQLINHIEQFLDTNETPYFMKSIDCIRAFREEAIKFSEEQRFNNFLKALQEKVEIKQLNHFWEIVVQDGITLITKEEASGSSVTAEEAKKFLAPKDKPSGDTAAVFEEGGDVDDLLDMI

Structure (SMILES): COc1ccc(-c2ccc(/C=C3\C(=O)N(c4cccc(C(=O)O)c4)c4ccccc43)o2)cc1C(=O)Nc1cccc(OC(F)(F)F)c1 [GL-3392]
- Kd (Ku70–Ku80 [1]): 2.1 ± 0.3 µM
- Thermal stability of Ku (Ku70–Ku80 [2]): induced a shift in thermal stability
- Ki-67 expression in tumors ([3]; 3392 intratumoral plus 5 Gy IR): statistically significant decrease in the Ki-67 expression
- γ-H2AX in tumors ([3]; 3392 intratumoral plus 5 Gy IR, Western blot): further exacerbated in the combination-treated tumors
- IR-induced DNA-PKcs autophosphorylation in tumors ([3]; intratumoral 30 µL of 10 mM, 4 h before 5 Gy, tumors taken 2 h post-irradiation, Western blot): effectively reversed the IR-induced DNA-PKcs autophosphorylation
- Ki-67 expression in tumors ([3]; single-agent 3392, intratumoral): limited effects
